The values that follow come from patent US20260315447A1, “COMBINATION THERAPY WITH A MTOR INHIBITOR AND A MULTI-TYROSINE KINASE INHIBITOR FOR TREATING SOFT TISSUE SARCOMA” (ADDi Bioscience, Inc., priority 2023, published 2026).

In general, IC50 refers to the concentration needed to halve the response being measured.

For one data set, the system named is mTORC2. The note with it: cited from earlier work.
The next data set concerns mTORCI. To be noted: cited from earlier work.
Data set [1] deals with Human serum albumin (HSA). To be noted: cited from earlier work.
For the next data set, the system named is human plasma proteins. The note with it: cited from earlier work.
Data set [2] in a line: Phase I study of oral pazopanib and intravenous nab-sirolimus: safety (adverse events, dose-limiting toxicity, recommended dose). Format: in vivo, human. To be noted: by mouth daily, in combination with nab-sirolimus 30 mg/m^2. The source says: This was a phase I study designed to determine the safety and feasibility of a combination of oral pazopanib hydrochloride and intravenous nab-sirolimus. To obtain preliminary information regarding efficacy, the study had limited enrollment to those patients with advanced/unresectable STS for whom single agent pazopanib was indicated as a therapy.
The primary endpoint of the study was the determination of a maximum-tolerated dose (MTD) and recommended Phase 2 dose of nab-sirolimus combined with pazopanib. Secondary endpoints included characterization of adverse events of the nab-sirolimus/pazopanib combination and descriptive characterization of clinical benefit of the nab-sirolimus/pazopanib combination (objective responses, progression-free survival duration, and clinical benefit rates at 3 and 6 months). Correlative endpoints were included to evaluate the correlation of clinical benefit with baseline mTOR pathway activation status, as assessed by immunohistochemistry for phosphorylated-S6 ribosomal protein, correlation of clinical benefit with baseline tumoral expression of Serum Protein Acidic and Rich in Cysteine (SPARC)/Osteonectin, as assessed by immunohistochemistry, and pharmacokinetics of nab-sirolimus in combination with pazopanib.
If no DLT occurred after two doses, escalation to the next dose level was permitted. […]

The next data set deals with soft-tissue sarcoma. To be noted: single agent pazopanib, soft-tissue sarcoma patients; cited from earlier work.

Each structure is given as a SMILES string. “Also recorded” adds a separate entry of the source.

`COc1cccc2cc(-c3nc([C@H]4CC[C@H](C(=O)O)CC4)n4ncnc(N)c34)[nH]c12` [OSI-027]: the half-maximal inhibitory concentration (IC50) in the data set with mTORC2 was 65 nM; with mTORCI it was 22 nM.

Consider `CO[C@H]1C[C@@H]2CC[C@@H](C)[C@@](O)(O2)C(=O)C(=O)N2CCCC[C@H]2C(=O)O[C@H]([C@H](C)C[C@@H]2CC[C@@H](O)[C@H](OC)C2)CC(=O)[C@H](C)/C=C(\C)[C@@H](O)[C@@H](OC)C(=O)[C@H](C)C[C@H](C)/C=C/C=C/C=C/1C` [Rapamycin, rapamycin], for which the “binding to HSA” value in data set [1] was “bind HSA”.

As for `CC(=O)O[C@@]12CO[C@@H]1C[C@H](O)[C@@]1(C)C(=O)[C@H](O)C3=C(C)[C@@H](OC(=O)[C@H](O)[C@@H](NC(=O)OC(C)(C)C)c4ccccc4)C[C@@](O)([C@@H](OC(=O)c4ccccc4)[C@H]21)C3(C)C` [docetaxel], the “binding to human plasma proteins” value in the data set on human plasma proteins is reported as “bind to human plasma proteins”.

With `Cc1ccc(Nc2nccc(N(C)c3ccc4c(C)n(C)nc4c3)n2)cc1S(N)(=O)=O` [pazopanib], the “Recommended Phase 2 dose of pazopanib” value in data set [2] was 400 mg. Besides, in the data set with soft-tissue sarcoma, the “overall survival compared to placebo control” value is listed as “did not have a meaningful improvement in overall survival rate; also recorded: not found to provide a significant difference in overall survival” and the response rate is recorded as approximately 6%.

As for `CC(C)c1cccc(C(C)C)c1O` [propofol], the “binding to HSA” value in data set [1] is recorded as “bind HSA”.
